From patent publication US20210052537A1, “COLITIS AMELIORATING AGENT” (ASTA PHARMACEUTICALS, CO., LTD., priority 2018, published 2021)
Where “and” joins values, the source holds several entries; their conditions need not be identical. Equal values may be shown once.

Tested on: Oxa-induced colitis
Test: Oxazolone (Oxa)-induced colitis mouse model
Assay type: in vivo
Conditions: for Colon length / Colon weight (wet weight per length): 6 days, mean ± SD
From the text: In this Example, mouse models to which oxazolone (4-ethoxymethylene-2-phenyl-2-oxazolin-5-on, hereinafter, Oxa) is used will be described as colitis models. When Oxa was first applied to skin, subsequently administered enterally after a certain period of time, an experimental ulcerative colitis model similar to human ulcerative colitis in terms of not only symptoms such as suppression of body weight increase, blood in stools, and anemia and formation of colon erosion but also immune cells was built (Non-Patent Literature 4). A suppression effect of Compound X on colitis in such a model as the test model showing pathological conditions more similar to human ulcerative colitis was examined. For the examination items, the length and weight of the colon were examined as changes in colon properties are widely known to occur also in this model.
For treatment, Balb/c, male mice were purchased from CHARLES RIVER LABORATORIES JAPAN, INC. in accordance with previous literature (Non-Patent Literature 5) and 8-week old mice with no abnormal general conditions during quarantine and acclimation period were used for the experiment. After acclimation, the animals were divided in such a way as to be 1 mouse per cage. Oxa used in the experiment was purchased from Sigma.
Fur at back of the neck was shaved in an area of 1.5×1.5 cm under anesthesia, and 150 μL (a 100% ethanol solution) of 3% (wt/vol) Oxa was added using a pipette and applied between the shoulders to sensitize (Day 1). The mice were kept under such a typical breeding environment, fasted for 16 hours from Day 7 (water supply was continued), and subsequently on Day 8 100 μL of a solution of 1% (wt/vol) Oxa in 50% ethanol was transanally administered into the rectum (3.5 cm from the anus) using a catheter under anesthesia. Hereinafter, the above treatment is described as Oxa treatment. After treatment, typical feeding breeding was carried out.
Starting on the day following intrarectal administration of Oxa, test substances were orally administered (once daily, for 6 days). 5-Aminosalicylic acid (hereinafter 5-ASA, Tokyo Chemical Industry, Co., Ltd.) and prednisolone (hereinafter, PSL, Sigma), which are anti-inflammatory agents used for treating ulcerative colitis, were used as positive controls for the test. After group division, each of the test substances of Table 6 was suspended in a solution of 0.5% sodium carboxymethyl cellulose (hereinafter, CMC, Nacalai Tesque Inc.) in such a way as to be each treatment of Table 6 and orally administered once daily. […] These control groups, Groups 1 and 2, were orally administered, as the test substance, with the 0.5% CMC solution which was used as the medium.
The test started with 6 mice in Group No. 1 and 9 mice each in Group Nos. 2 to 6. After the treatment started, death of animals in Group Nos. 2 to 6 due to the cause considered enteritis from Oxa treatment was observed and thus 6 mice in Group Nos. 1 and 3, and 5 mice in Group Nos. 2 and 6, and 7 mice in Group Nos. 4 and 5 were finally used for analysis.
It is generally acknowledged as a known fact that Oxa treatment causes colon tissue changes such as the length of colon is shortened while the weight increases. For evaluating the therapeutic effect of Compound X, the length and weight of the colon were measured. The mice were euthanized under anesthesia on day 7 of Oxa treatment and dissected to remove the colon. The removed colon was quickly measured for a length in a relaxed state. Subsequently, feces in the intestinal tract were removed and sufficiently washed with phosphate buffered saline (Wako Pure Chemical Industries, Ltd.) and measured for a wet weight.

[1] = Group Nos. 3 to 6 of Table 7, in words
[2] = Oxa treatment + high dose 10 mg/kg/day oral, day 7, 10 mg/kg/day

Compound: CC1=C(/C=C/C(C)=C/C=C/C(C)=C/C=C/C=C(C)/C=C/C=C(C)/C=C/C2=C(C)C(=O)[C@@H](OC(=O)CNC(=O)NCCCC(=O)O)CC2(C)C)C(C)(C)C[C@H](OC(=O)CNC(=O)NCCCC(=O)O)C1=O.NCCCC[C@H](N)C(=O)O.NCCCC[C@H](N)C(=O)O [Compound X, 4-(3-{4-[18-(4(S)-[3-(3-Carboxypropyl)ureidoacetoxy]-2,6,6-trimethyl-3-oxocyclohexa-1-enyl)-3,7,12,16-tetramethyloctadeca-1(E),3(E),5(E),7(E),9(E),11(E),13(E),15(E),17(E)-nonaenyl]-3,5,5-trimethyl-2-oxocyclohex-3-enyl-1(S)-oxycarbonylmethyl}ureido)butyric acid dilysine salt]
- Colon length compared with Vehicle group [1]: longer length of the colon than Vehicle group
- Colon wet weight compared with Vehicle group [1]: suppressed weight increases compared with Vehicle group
- Colon length [2]: 8.74 cm and 8.74 ± 0.48 cm
- Colon weight (wet weight per length) [2]: 2.80 mg/mm and 2.80 ± 0.43 mg/mm
- Colon length (Oxa treatment + low dose 3 mg/kg/day oral, Balb/c mice, day 7 of Oxa treatment, 3 mg/kg/day): 8.72 cm and 8.72 ± 0.50 cm
- Colon weight (wet weight per length) (Oxa treatment + low dose 3 mg/kg/day oral, day 7, 3 mg/kg/day): 3.44 mg/mm and 3.44 ± 0.45 mg/mm
